Reference: patent US12227488B2, “Small molecule degraders of Helios and methods of use” (DANA-FARBER CANCER INSTITUTE, INC., priority 2018, dated 2025)

What was measured:
IKZF2 = assay: Cellular degradation assay, eGFP-IKZF2Δ fusion with mCherry reporter in Flp-In 293 cells; assay type: cell-based; conditions: 5 h incubation, n=1
Procedure, shortened: (§1)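 DC50,5 h derived by variable-slope nonlinear fit of the per-well ratio of GFP-positive to mCherry-positive cells, imaged after 5 h compound exposure at 0.5% DMSO.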

IKZF1 = target: T1, IKZF1 (Homo sapiens, UniProt Q13422); assay: Cellular degradation assay, eGFP-IKZF1Δ fusion with mCherry reporter in Flp-In 293 cells; assay type: cell-based; conditions: 5 h incubation, n=1
T1 construct: expressed in transfected cells; host or cells: Flp-In 293
Procedure, shortened: as §1

GSPT1 = GSPT1 (Homo sapiens, UniProt P15170+Q96SW2); assay: Cellular degradation assay, eGFP-GSPT1 fusion with mCherry reporter in Flp-In 293 cells; assay type: cell-based; design: expressed in transfected cells; host or cells: Flp-In 293; conditions: 5 h incubation, n=1
Procedure, shortened: as §1

CRBN and Helios (IKZF2) = target: T2, CRBN and Helios (IKZF2) (Homo sapiens, UniProt Q96SW2+Q9UKS7); assay: TR-FRET dimerization assay (CRBN-IKZF2 ternary complex formation); assay type: binding; conditions: n=1
T2 construct: His (N); Strep (N)
Procedure, shortened: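 Compound-induced IKZF2 recruitment to CRBN was read as the 520/490 nm TR-FRET ratio after 15 min at rt. The mix held biotinylated IKZF2, BODIPY-labeled CRBN bound to DDB1 lacking the BPB propeller, tracer Tb-streptavidin and compound titrations; n=1, from ≥3 technical replicates per well.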

SALL4 ZNF1-2 = target: T3, SALL4 ZNF1-2 (Homo sapiens, UniProt Q96SW2+Q9UJQ4); assay: Cellular degradation assay, eGFP-SALL4 ZnF1-2 fusion with mCherry reporter in Flp-In 293 cells; assay type: cell-based; conditions: 5 h incubation, n=1
T3 construct: IKZF1Δ, IKZF2Δ, GSPT1 and SALL4 ZnF1-2 were subcloned; expressed in transfected cells; host or cells: Flp-In 293
Experimental: IKZF1Δ, IKZF2Δ, GSPT1 and SALL4 ZnF1-2 were subcloned into mammalian pcDNA5/FRT Vector (Ampicillin and Hygromycin B resistant) modified to contain MCS-eGFP-P2A-mCherry. Stable cell lines expressing eGFP-protein fusion and mCherry reporter were generated using Flp-In™ 293 system. Plasmid (0.3 μg) and pOG44 (4.7 μg) DNA were preincubated in 100 μL of Opti-MEM® I (Gibco®, Life Technologies™) media containing 0.05 mg/mL Lipofectamine® 2000 (Invitrogen™) for 20 min and added to Flp-In™ 293 cells containing 1.9 ml of DMEM media (Gibco®, Life Technologies™) per well in a 6-well plate format (Falcon, 353046). Cells were propagated after 48 h and transferred into a 10 cm^2 plate (Corning, 430165) in DMEM media containing 50 μg/mL of Hygromycin B (REF 10687010, Invitrogen™) as a selection marker. Following 2-3 passage cycle, FACS (FACSAria™ II, BD) was used to enrich for cells expressing eGFP and mCherry. Cells stably expressing the IKZF1Δ, IKZF2Δ, GSPT1 or SALL4 Znf1-2 GFP fusions with mCherry reporter were seeded at 30-50% confluency in 384-well plates with 50 μL FluoroBrite™ DMEM media (Thermo Fisher Scientific, A18967) containing 10% FBS per well a day before compound treatment. Compound titrations were dispensed using a D300e Digital Dispenser (HP), normalized to 0.5% DMSO, and incubated with cells for 5 hours. The assay plate was imaged immediately using an Acumen® High Content Imager (TTP Labtech) with 488 nm and 561 nm lasers in […] grid per well format.
The resulting images were analyzed using CellProfiler™. A series of image analysis steps (‘image analysis pipeline’) was constructed. First, the red and green channels were aligned and cropped to target the middle of each well (to avoid analysis of heavily clumped cells at the edges), and a background illumination function was calculated for both red and green channels of each well individually and subtracted to correct for illumination variations across the 384-well plate from various sources of error. An additional step was then applied to the green channel to suppress the analysis of large auto fluorescent artifacts and enhance the analysis of cell specific fluorescence by way of selecting for objects under a given size, 30 A.U., and with a given shape, speckles. mCherry-positive cells were then identified in the red channel filtering for objects between 8-60 pixels in diameter and using intensity to distinguish between clumped objects. The green channel was then segmented into GFP positive and negative areas and objects were labeled as GFP positive if at least 40% of it overlapped with a GFP positive area. The fraction of GFP-positive cells/mCherry-positive cells in each well was then calculated, and the green and red images were rescaled for visualization.

[1] = compound concentration 2.00E−05
[2] = compound concentration 2.00E−06
[3] = compound concentration 2.00E−07
[4] = compound concentration 6.6667E−05
[5] = compound concentration 6.6667E−06
[6] = compound concentration 6.6667E−07 (667 nM)

Chain of GSPT1 (P15170 whole entry, the tested form may be a part): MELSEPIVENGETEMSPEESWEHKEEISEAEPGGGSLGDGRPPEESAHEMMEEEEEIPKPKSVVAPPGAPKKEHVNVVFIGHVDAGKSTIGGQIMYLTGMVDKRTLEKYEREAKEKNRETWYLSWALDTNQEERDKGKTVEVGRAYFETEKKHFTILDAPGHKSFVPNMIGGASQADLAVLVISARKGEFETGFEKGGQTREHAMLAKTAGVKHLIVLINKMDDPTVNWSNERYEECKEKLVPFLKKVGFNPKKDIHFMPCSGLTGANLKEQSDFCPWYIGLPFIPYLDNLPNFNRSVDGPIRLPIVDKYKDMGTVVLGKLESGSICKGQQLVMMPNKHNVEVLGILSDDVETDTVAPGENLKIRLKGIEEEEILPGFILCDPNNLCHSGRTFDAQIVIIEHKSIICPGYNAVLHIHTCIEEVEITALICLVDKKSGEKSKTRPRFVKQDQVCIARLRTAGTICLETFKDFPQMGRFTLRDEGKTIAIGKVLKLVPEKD
Chain of GSPT1 (Q96SW2 whole entry, the tested form may be a part): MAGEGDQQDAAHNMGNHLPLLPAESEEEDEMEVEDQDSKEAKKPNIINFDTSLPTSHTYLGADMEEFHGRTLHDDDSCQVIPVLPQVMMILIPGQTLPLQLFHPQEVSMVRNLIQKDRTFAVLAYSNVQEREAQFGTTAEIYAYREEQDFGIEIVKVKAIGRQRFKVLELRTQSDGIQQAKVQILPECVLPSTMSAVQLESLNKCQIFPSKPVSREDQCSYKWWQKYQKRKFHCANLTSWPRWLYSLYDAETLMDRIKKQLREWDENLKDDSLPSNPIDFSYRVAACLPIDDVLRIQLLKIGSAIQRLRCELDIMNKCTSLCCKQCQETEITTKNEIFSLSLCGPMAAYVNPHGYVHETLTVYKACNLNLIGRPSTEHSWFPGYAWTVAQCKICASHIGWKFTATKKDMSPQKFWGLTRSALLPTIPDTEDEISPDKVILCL
Chain of GSPT1 (Q16531 whole entry partner, the tested form may be a part): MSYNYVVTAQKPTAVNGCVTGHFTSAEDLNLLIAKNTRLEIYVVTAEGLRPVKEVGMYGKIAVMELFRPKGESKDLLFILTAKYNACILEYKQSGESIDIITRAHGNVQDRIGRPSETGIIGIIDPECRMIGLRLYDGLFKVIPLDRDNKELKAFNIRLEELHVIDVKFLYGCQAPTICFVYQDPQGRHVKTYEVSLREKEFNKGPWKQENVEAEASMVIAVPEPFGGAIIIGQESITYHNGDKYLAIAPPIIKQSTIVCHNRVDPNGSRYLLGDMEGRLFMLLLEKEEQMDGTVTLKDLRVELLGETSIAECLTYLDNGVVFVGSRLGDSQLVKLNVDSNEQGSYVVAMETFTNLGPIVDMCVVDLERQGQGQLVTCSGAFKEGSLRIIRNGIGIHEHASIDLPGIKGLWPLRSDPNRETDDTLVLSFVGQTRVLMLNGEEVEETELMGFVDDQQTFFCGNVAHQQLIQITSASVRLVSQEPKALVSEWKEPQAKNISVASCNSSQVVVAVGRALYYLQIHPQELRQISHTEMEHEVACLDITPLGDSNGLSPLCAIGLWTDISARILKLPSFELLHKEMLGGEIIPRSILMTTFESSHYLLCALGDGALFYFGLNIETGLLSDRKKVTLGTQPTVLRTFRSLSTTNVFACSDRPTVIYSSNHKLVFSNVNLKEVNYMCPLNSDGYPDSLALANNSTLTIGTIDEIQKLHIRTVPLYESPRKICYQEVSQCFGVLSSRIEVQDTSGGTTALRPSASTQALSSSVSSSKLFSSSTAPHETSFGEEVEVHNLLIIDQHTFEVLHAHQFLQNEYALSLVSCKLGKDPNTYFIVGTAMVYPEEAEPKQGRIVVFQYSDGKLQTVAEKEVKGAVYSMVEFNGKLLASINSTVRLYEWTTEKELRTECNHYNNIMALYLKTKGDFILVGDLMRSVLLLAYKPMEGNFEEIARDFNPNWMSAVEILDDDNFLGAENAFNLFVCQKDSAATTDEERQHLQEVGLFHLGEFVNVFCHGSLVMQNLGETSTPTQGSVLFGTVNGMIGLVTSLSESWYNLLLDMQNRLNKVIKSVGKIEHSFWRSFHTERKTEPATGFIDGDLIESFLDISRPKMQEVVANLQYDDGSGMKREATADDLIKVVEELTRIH
T2 sequence (Q96SW2 whole entry): as the sequence (Q96SW2 whole entry, the tested form may be a part) above
T2 sequence (Q9UKS7 whole entry): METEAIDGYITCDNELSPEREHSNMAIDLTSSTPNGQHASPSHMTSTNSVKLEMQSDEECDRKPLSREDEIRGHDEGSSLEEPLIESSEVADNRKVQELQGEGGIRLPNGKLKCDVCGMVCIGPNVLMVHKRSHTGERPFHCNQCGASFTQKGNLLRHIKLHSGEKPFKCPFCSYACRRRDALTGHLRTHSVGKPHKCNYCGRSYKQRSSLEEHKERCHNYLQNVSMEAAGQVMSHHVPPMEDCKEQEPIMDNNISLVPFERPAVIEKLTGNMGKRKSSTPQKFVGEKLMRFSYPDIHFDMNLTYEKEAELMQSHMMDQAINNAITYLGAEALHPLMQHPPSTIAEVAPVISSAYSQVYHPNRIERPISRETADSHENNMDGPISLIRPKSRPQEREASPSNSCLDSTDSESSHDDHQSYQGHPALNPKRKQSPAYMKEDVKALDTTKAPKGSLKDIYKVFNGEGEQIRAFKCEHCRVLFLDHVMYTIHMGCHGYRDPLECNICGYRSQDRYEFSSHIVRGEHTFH
T1 sequence (Q13422 83-213 isoform Q13422-7 limits assumed): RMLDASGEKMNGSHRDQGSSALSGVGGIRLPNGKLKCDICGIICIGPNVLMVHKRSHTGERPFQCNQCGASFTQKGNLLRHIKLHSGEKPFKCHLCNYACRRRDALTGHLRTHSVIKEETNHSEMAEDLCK
T1 sequence (Q96SW2 whole entry partner, the tested form may be a part): as the sequence (Q96SW2 whole entry, the tested form may be a part) above
T1 sequence (Q16531 2-1140 partner limits assumed): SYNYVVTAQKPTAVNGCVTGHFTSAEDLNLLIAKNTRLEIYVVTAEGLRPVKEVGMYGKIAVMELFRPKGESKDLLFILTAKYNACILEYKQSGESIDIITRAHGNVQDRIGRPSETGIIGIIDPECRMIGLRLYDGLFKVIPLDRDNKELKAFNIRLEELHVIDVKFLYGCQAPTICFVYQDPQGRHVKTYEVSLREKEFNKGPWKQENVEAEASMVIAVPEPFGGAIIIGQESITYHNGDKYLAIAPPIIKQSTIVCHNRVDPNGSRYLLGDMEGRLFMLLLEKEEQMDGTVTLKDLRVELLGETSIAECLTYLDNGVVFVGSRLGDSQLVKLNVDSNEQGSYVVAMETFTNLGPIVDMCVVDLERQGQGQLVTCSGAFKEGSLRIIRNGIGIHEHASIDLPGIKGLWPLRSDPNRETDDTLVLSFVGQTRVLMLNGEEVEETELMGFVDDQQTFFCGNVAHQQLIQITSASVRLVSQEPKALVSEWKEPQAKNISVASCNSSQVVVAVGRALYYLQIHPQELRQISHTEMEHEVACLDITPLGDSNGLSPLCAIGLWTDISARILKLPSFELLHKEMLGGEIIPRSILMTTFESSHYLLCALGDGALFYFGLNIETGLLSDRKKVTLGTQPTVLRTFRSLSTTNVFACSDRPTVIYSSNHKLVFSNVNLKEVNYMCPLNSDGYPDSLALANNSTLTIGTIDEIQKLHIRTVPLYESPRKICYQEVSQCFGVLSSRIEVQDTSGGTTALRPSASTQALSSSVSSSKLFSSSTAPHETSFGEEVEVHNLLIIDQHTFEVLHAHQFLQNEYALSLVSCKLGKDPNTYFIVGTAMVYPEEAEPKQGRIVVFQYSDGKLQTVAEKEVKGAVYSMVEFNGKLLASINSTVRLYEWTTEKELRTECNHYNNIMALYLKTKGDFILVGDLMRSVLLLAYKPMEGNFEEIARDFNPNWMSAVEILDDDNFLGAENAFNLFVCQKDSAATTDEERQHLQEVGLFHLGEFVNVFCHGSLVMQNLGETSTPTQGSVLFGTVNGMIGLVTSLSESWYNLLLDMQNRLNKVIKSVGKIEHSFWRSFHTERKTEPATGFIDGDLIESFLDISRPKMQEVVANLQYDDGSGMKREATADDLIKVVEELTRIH
T3 sequence (Q9UJQ4 378-438 limits assumed): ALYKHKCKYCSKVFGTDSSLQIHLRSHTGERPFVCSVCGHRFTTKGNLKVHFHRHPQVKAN
T3 sequence (Q96SW2 whole entry, the tested form may be a part): as the sequence (Q96SW2 whole entry, the tested form may be a part) above
T3 sequence (Q16531 whole entry partner, the tested form may be a part): as the sequence (Q16531 whole entry partner, the tested form may be a part) above

| Structure (SMILES) | IKZF2 GFP/RFP Relative Abundance (IKZF2; [1]) | IKZF2 GFP/RFP Relative Abundance (IKZF2; [2]) | IKZF2 GFP/RFP Relative Abundance (IKZF2; [3]) | IKZF1 GFP/RFP Relative Abundance (IKZF1; [1]) | IKZF1 GFP/RFP Relative Abundance (IKZF1; [2]) | IKZF1 GFP/RFP Relative Abundance (IKZF1; [3]) | GSPT1 GFP/RFP Relative Abundance (GSPT1; [1]) | GSPT1 GFP/RFP Relative Abundance (GSPT1; [2]) | GSPT1 GFP/RFP Relative Abundance (GSPT1; [3]) | TR-FRET-IKZF2 (Normalized to CC-885) (CRBN and Helios (IKZF2); [4]) | TR-FRET-IKZF2 (Normalized to CC-885) (CRBN and Helios (IKZF2); [5]) | TR-FRET-IKZF2 (Normalized to CC-885) (CRBN and Helios (IKZF2); [6]) | SALL4 ZNF1-2 GFP/RFP Relative Abundance (SALL4 ZNF1-2; [1]) | SALL4 ZNF1-2 GFP/RFP Relative Abundance (SALL4 ZNF1-2; [2]) | SALL4 ZNF1-2 GFP/RFP Relative Abundance (SALL4 ZNF1-2; [3]) |
| --- | --- | --- | --- | --- | --- | --- | --- | --- | --- | --- | --- | --- | --- | --- | --- |
| CCOC(=O)CN(C)C1=CC(=O)N(C2CCC(=O)NC2=O)C1=O (stereo not drawn) [Compound 17, Ethyl N-(1-(2,6-dioxopiperidin-3-yl)-2,5-dioxo-2,5-dihydro-1H-pyrrol-3-yl)-N-methylglycinate] | 1.006 | 0.996 | 1.037 | 1.020 | 1.018 | 1.025 | 0.942 | 1.001 | 0.795 | 0.043 | 0.032 | 0.015 | 0.897 | 0.912 | 0.895 |
| O=C1CCC(N2C(=O)C=C(Nc3nc[nH]n3)C2=O)C(=O)N1 (stereo not drawn) [Compound 18, 3-(3-((1H-1,2,4-triazol-3-yl)amino)-2,5-dioxo-2,5-dihydro-1H-pyrrol-1-yl)piperidine-2,6-dione] | 1.055 | 0.992 | 0.990 | 0.943 | 0.833 | 0.847 | 0.880 | 0.650 | 0.498 | 0.062 | 0.018 | 0.024 | 0.967 | 0.999 | 0.904 |
| O=C1CCC(N2C(=O)C=C(Nc3nccs3)C2=O)C(=O)N1 (stereo not drawn) [Compound 19, 3-(2,5-dioxo-3-(thiazol-2-ylamino)-2,5-dihydro-1H-pyrrol-1-yl)piperidine-2,6-dione] | 0.653 | 0.980 | 0.991 | 0.216 | 0.818 | 0.110 | 1.023 | 0.946 | 0.953 | 0.217 | 0.041 | 0.057 | 1.010 | 1.012 | 0.597 |
| COC(=O)c1n[nH]c(NC2=CC(=O)N(C3CCC(=O)NC3=O)C2=O)n1 (stereo not drawn) [Compound 20, Methyl 5-((1-(2,6-dioxopiperidin-3-yl)-2,5-dioxo-2,5-dihydro-1H-pyrrol-3-yl)amino)-1H-1,2,4-triazole-3-carboxylate] | 0.952 | 0.987 | 1.025 | 0.721 | 0.895 | 0.342 | 0.901 | 1.036 | 1.069 | 0.050 | 0.017 | 0.014 | 0.894 | 0.908 | 0.892 |
| O=C(O)CCCNC1=CC(=O)N(C2CCC(=O)NC2=O)C1=O (stereo not drawn) [Compound 21, 4-((1-(2,6-dioxopiperidin-3-yl)-2,5-dioxo-2,5-dihydro-1H-pyrrol-3-yl)amino)butanoic acid] | 0.996 | 0.951 | 0.946 | 0.842 | 0.975 | 0.998 | 0.693 | 0.938 | 0.909 | 0.047 | 0.019 | 0.012 | 0.937 | 0.921 | 0.957 |
| O=C(O)CCCCNC1=CC(=O)N(C2CCC(=O)NC2=O)C1=O (stereo not drawn) [Compound 22, 5-((1-(2,6-dioxopiperidin-3-yl)-2,5-dioxo-2,5-dihydro-1H-pyrrol-3-yl)amino)pentanoic acid] | 1.001 | 0.982 | 0.935 | 0.984 | 1.028 | 0.939 | 1.058 | 0.883 | 0.745 | 0.055 | 0.032 | 0.018 | 0.953 | 0.962 | 1.044 |
